Legend:
hα2C receptor = biological target: T1, hα2C receptor (Homo sapiens, UniProt P18825); assay: Radioligand binding experiment for α2C-adrenoceptor ([3H]raulwolscine, CHO cell membranes); details: [3H]raulwolscine binding, read-out: h-α2C pIC50 (converted)
T1 construct: expressed in transfected cells; host or cells: CHO cells, stably transfected; membrane preparation
T1 sequence (P18825 1-462): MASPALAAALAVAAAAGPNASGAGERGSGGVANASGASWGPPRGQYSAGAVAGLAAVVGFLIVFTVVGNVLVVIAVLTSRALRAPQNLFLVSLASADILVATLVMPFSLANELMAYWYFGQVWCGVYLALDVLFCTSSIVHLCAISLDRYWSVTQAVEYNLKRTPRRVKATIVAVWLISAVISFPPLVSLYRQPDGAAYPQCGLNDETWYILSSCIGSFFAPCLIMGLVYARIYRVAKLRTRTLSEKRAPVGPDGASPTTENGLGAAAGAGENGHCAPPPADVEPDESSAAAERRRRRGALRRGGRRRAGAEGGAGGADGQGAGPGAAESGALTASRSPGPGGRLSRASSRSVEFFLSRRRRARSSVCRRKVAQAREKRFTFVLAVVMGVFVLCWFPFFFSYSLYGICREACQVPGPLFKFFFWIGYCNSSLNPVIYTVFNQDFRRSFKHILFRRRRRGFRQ

5HT-Transporter = biological target: T2, 5HT-Transporter (Homo sapiens, UniProt P31645); assay: Binding experiment for the 5HT-transporter ([3H]paroxetine, human platelet membranes); details: [3H]paroxetine 0.5 nM, read-out: h-5HTT pIC50 (converted)
T2 construct: Human platelet membranes (Oceanix Biosciences Corporation, Hanover, Md., USA) were thawed; tissue Oceanix Biosciences Corporation, Hanover, Md., USA; host or cells: human platelet membranes
T2 sequence (P31645 whole entry): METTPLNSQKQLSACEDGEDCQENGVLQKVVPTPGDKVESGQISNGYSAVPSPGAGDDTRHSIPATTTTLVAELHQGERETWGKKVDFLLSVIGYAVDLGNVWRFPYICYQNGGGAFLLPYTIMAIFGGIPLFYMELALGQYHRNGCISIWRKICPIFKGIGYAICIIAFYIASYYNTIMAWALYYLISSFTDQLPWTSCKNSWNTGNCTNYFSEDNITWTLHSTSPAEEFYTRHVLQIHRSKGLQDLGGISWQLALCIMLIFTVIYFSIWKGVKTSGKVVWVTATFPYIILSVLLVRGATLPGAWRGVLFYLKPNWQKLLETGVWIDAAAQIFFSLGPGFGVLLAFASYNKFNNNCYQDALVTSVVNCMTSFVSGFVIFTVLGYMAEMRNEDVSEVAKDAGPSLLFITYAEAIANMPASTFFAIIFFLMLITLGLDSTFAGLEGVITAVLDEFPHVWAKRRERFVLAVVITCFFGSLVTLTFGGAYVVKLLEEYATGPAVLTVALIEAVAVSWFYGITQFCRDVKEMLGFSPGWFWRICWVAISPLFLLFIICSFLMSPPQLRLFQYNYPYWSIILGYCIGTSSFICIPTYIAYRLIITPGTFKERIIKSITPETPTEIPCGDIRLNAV
Method in brief: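 Competition binding of [3H]paroxetine to human platelet membranes in Tris-HCl 50 mM, 120 mM NaCl, 5 mM KCl, with filtration and scintillation counting.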

hα2A receptor = biological target: T3, hα2A receptor (Homo sapiens, UniProt P08913); assay: Radioligand binding experiment for α2A-adrenoceptor ([3H]raulwolscine, CHO cell membranes); details: [3H]raulwolscine binding, read-out: h-α2A pIC50 (converted)
T3 construct: expressed in transfected cells; host or cells: CHO cells, stably transfected; membrane preparation
T3 sequence (P08913 1-465): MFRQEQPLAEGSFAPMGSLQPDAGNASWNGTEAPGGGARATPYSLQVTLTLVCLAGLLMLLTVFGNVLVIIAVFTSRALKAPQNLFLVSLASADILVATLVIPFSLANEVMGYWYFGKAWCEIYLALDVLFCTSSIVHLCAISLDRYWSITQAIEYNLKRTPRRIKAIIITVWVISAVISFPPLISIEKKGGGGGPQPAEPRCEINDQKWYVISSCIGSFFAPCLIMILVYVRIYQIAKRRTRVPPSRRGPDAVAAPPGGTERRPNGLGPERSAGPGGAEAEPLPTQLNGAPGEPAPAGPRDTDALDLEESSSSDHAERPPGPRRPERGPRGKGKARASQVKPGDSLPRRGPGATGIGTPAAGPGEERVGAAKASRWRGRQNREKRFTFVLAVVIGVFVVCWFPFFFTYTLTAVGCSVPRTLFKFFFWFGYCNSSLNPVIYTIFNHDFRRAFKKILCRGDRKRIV

Compound | IC50 (hα2C receptor) [nM] | IC50 (5HT-Transporter) [nM] | IC50 (hα2A receptor) [nM] | melting point [°C]
C=CCn1ccnc(NC2CCN(C/C(C)=C/c3ccccc3)CC2)c1=O [7-11] | 12.6 | 2000 | 31.6 | 126
C/C(=C\c1ccccc1)CN1CCC(Nc2nccn(Cc3ccc(CNS(=O)(=O)c4ccccc4)cc3)c2=O)CC1 [1-159] | 25.1 | 794 | 63.1 | 128
C/C(=C\c1ccccc1)CN1CCC(Nc2nccn(CC(=O)N3CCCCC3)c2=O)CC1 [2-5] | 6.31 | 5010 | 126 | 170
C/C(=C\c1ccccc1)CN1CCC(Nc2nccn(Cc3ccccc3CS(=O)(=O)c3ccccc3)c2=O)CC1 [4-3] | 15.8 | 398 | 158 | 112
CC(=O)c1ccc(S(=O)(=O)NCc2ccc(Cn3ccnc(NC4CCN(C/C(C)=C/c5ccccc5)CC4)c3=O)cc2)cc1 [1-165] | 25.1 | 1000 | 158 | 110
C/C(=C\c1ccccc1)CN1CCC(Nc2nccn(CC(=O)N(C)C)c2=O)CC1 [1-16] | 15.8 | > 10000 | 100 | 128
C/C(=C\c1ccccc1)CN1CCC(Nc2nccn(Cc3ccc(CN)cc3)c2=O)CC1 [1-6] | 2.51 | 398 | 12.6 | 286
